We go through two compounds from patent US8906869B2 (University of South Florida, priority 2007, dated 2014).

The test system of one data set is miR-214. Briefly: qRT-PCR of miR-214 expression after antisense 2'-O-methyl oligonucleotide transfection. To be noted: A2780CP cells, 150 pMol per well, 72 h transfection. It counts as cell-based, human. How it is done: (§1) FIG. 4. […] (B) MTT assay. […] (C) Flow cytometry. Indicated cells were treated with cisplatin or DMSO for 12 h and the subG1 population was identified by flow cytometry.
Expression of miRNAs was also analysed by RNase protection or mirVana qRT-PCR miRNA detection assay. For RNase protection assay, enriched small RNA was purified using the miRVana miRNA isolation Kit (Ambion). […] Probe hybridization and RNase protection were then carried out using the mirVana™ miRNA detection kit (Ambion) according to manufacturer's instructions. After hybridization and RNase treatment, the double-strand products were resolved in a 15% polyacrylamide 8 M urea denaturing gel and visualized using phospho imaging and autoradiography. mirVanaqRT-PCR was performed according to the manufacturer's protocol (Ambion). PCR products were analyzed by electrophoresis, on a 7.5% polyacrylamide gel in 0.5×TBE and visualized by ethidium bromide staining.
2′-O-methyl (2-O-me) oligoribonucleotides were synthesized by Integrated DNA Technologies. […] […]-3′ (SEQ ID NO: 5) and 5′-[…]-3′ (SEQ ID NO: 6). 2′-O-me-scrambled miR (5′-[…]-3′) (SEQ ID NO: 7) was used as a control. Cells were grown in 6-well plate ([…]) for 24 hand transfected with 150 pMol of 2′-O-me oligoribonucleotides per well using Lipofectamine 2000. RNA and protein were extracted after 72 h transfection.

A further data set deals with Akt. Description: Immunoblotting of phosphorylation of Akt and Akt substrates in A2780CP cells after knockdown of miR-214. It is filed as cell-based, human. The settings on record: 150 pM/well, 72 h. How it is done: (§2) PTEN mRNA level was measured by RT-PCR (panel 8). U6 (panel 7) and GAPDH (bottom panel) were used for controls. […] Anti-mi[…] and scramble 2'-O-methyl oligonucleotide were used as controls. After incubation of 72 h, cells were lysed and immunoblotted with indicated antibodies (C). […] Following 36 h incubation, cells were subjected to luciferase assay. The data are the means of three independent experiments, and error bars indicate standard deviations. (F) Representative tumor and normal tissue lysates were analyzed by Western blot with indicated antibodies (panels 1 and 2). […] U6 was used as a control (bottom panel). […] Cells were grown in 6-well plate ([…]) for 24 hand transfected with 150 pMol of 2'-O-me oligoribonucleotides per well using Lipofectamine 2000. RNA and protein were extracted after 72 h transfection. […] The cells transfected with pcDNA3.[…][…]-Togo vector alone and pcDNA3.[…][…]-Topo-miR-199a* were used as controls. […]). […] PTEN protein was examined in a same series of normal ovary and primary ovarian tumor specimens for expression of miRNAs (FIG. 2F).
For orientation: A western blot detects proteins with antibodies after separation by electrophoresis.

The subject of data set [1] is PTEN. Briefly: Immunoblotting of PTEN protein in A2780CP cells after knockdown of miR-214. It counts as cell-based, human. The settings on record: 150 pM/well, 72 h. How it is done: as §2
In another data set the test system is A2780CP cells. Description: MTT cell viability and flow cytometry apoptosis in A2780CP cells. It is filed as cell-based, human. The method, then:
as §1
The cells transfected with 2′-O-methyl-scramble-miR were used as control. […] Further, the cells were treated with cisplatin or vehicle DMSO.
On the technique in general: A flow cytometer gives signals particle by particle.

In data set [2] the test system is PTEN. To be noted: ovarian cancer, reference 25; cited from earlier work.

As to “2′-O-methyl-anti-miR-214: antisense 2′-O-methyl oligoribonucleotide targeting miR-214, 5′-CUGCCUGUCUGUGCCUGCUGU-3′ (SEQ ID NO: 5) (all 2'-O-methyl, backbone not given here)”, the “level of miR-214” value in the data set with miR-214 is listed as “significantly decreased”. In addition, the “phosphorylation levels of Akt and Akt substrates GSK3β and p70S6K” value with Akt is recorded as “decreased”. Besides, the “protein level of PTEN” value in the data set on PTEN [1] is recorded as “increased the protein level of PTEN”. In the data set with A2780CP cells (cisplatin 20 uM, MTT and flow cytometry), the “sensitization to cisplatin-induced apoptosis” value was “considerably sensitized A2780CP cells to cisplatin-induced apoptosis”. Also, the “reduction of cell survival” value with A2780CP cells (knockdown of miR-214 alone, cell viability analysis) is given as “about 20%”.

Take `Nc1ncn([C@H]2C[C@H](O)[C@@H](CO)O2)c(=O)n1` [5-aza-2′ deoxycytidine]: the PTEN protein expression entry in the data set with PTEN [2] is on record as “failed to restore PTEN protein expression”.
